Measured values published in patent US10052330B2, “Substituted pyrido[3,4-b]pyrazines as Syk inhibitors” (HUTCHISON MEDIPHARMA LIMITED, priority 2011, dated 2018).
pIC50: −log10 of the molar value.

Each compound was assayed against Syk kinase (Homo sapiens, UniProt P43405) (assay: Syk kinase enzymatic assay (Kit-Tyr 2 Peptide)). Conditions: 8 concentrations, 1 μM down to 0.0003 μM; upper bound of each range is 'less than'; read-out: IC50: Enzymatic Activity (Syk kinase).
Format: biochemical

Row | pIC50 | SMILES
1 | 6.00 to 7.00 | FC1(CNc2nc(-c3ccc(N4CCOCC4)nc3)cc3nccnc23)CCCNC1 (single isomer, unassigned) [Compound 378]
2 | 6.00 to 7.00 | c1cnc2c(N3CC4CNCC4C3)nc(-c3ccc(N4CCOCC4)cc3)cc2n1 (centres unmarked) [Compound 6]
3 | 6.00 to 7.00 | NC1CCN(c2nc(-c3ccc(N4CCOCC4)cc3)cc3nccnc23)CC1 [Compound 7]
4 | 6.00 to 7.00 | Fc1ccc(-c2cc3nccnc3c(NCC3CCCNC3)n2)cc1Cl (centres unmarked) [Compound 20]
5 | 6.00 to 7.00 | NS(=O)(=O)c1ccc(-c2cc3nccnc3c(NCC3CCCNC3)n2)cc1 (centres unmarked) [Compound 43]
6 | 7.00 to 9.00 | CNC(=O)COc1ccc(-c2cc3nccnc3c(NCC3CCCNC3)n2)cc1 (centres unmarked) [Compound 48]
7 | 6.00 to 7.00 | CNC(=O)COc1cccc(-c2cc3nccnc3c(NCC3CCCNC3)n2)c1 (centres unmarked) [Compound 49]
8 | 6.00 to 7.00 | Nc1ccc(-c2cc3nccnc3c(NCC3CCCNC3)n2)cn1 (centres unmarked) [Compound 57]
9 | 6.00 to 7.00 | COCCn1cc(-c2cc3nccnc3c(NCC3CCCNC3)n2)cn1 (centres unmarked) [Compound 72]
10 | 7.00 to 9.00 | CN(C)CCOc1ccc(-c2cc3nccnc3c(NCC3CCCNC3)n2)cc1 (centres unmarked) [Compound 90]
11 | 6.00 to 7.00 | c1cnc2c(NC[C@H]3CNCCO3)nc(-c3ccc(N4CCCC4)nc3)cc2n1 [Compound 101]
12 | 6.00 to 7.00 | c1cnc2c(N3CC4CCNC4C3)nc(-c3ccc(N4CCOCC4)cc3)cc2n1 (centres unmarked) [Compound 145, 4-(4-(5-(hexahydropyrrolo[3,4-b]pyrrol-5(1H)-yl)pyrido[4,3-b]pyrazin-7-yl)phenyl)morpholine]
13 | 6.00 to 7.00 | CC(C)Nc1nc(-c2ccc(N3CCOCC3)cc2)cc2nccnc12 [Compound 195]
14 | 6.00 to 7.00 | COc1cc(-c2cc3nccnc3c(NCCCN)n2)ccc1OCCN1CCOCC1 [Compound 198]
15 | 6.00 to 7.00 | Cc1cc(-c2cc3nccnc3c(NCC3CNCC(F)(F)C3)n2)ccc1N1CCOCC1 (centres unmarked) [Compound 201]
16 | 6.00 to 7.00 | Fc1cc(-c2cc3nccnc3c(NCC3CNCC(F)(F)C3)n2)ccc1N1CCOCC1 (centres unmarked) [Compound 202]
17 | 6.00 to 7.00 | FC1(F)CNCC(CNc2nc(-c3ccc(N4CCOCC4)nc3)cc3nccnc23)C1 (centres unmarked) [Compound 206]
18 | 6.00 to 7.00 | CNc1ccc(-c2cc3nccnc3c(NCC3CNCC(F)(F)C3)n2)cc1F (centres unmarked) [Compound 207]
19 | 6.00 to 7.00 | CS(=O)(=O)c1ccc(-c2cc3nccnc3c(NC[C@@H]3CNCCO3)n2)cc1 [Compound 211]
20 | 6.00 to 7.00 | CN(C)Cc1ccc(-c2cc3nccnc3c(NC[C@@H]3CNCCO3)n2)cc1 [Compound 212]

Row | pIC50 | SMILES
21 | 6.00 to 7.00 | c1cnc2c(NC[C@@H]3CNCCO3)nc(-c3ccc4c(c3)OCCO4)cc2n1 [Compound 244]
22 | 6.00 to 7.00 | Cn1cc(-c2ccc(-c3cc4nccnc4c(NC[C@@H]4CNCCO4)n3)cc2)cn1 [Compound 249]
23 | 6.00 to 7.00 | FC1(CNc2nc(-c3ccc(N4CCOCC4)nc3)cc3nccnc23)CCCNC1 (centres unmarked) [Compound 252]
24 | 6.00 to 7.00 | OC1CCN(c2ccc(-c3cc4nccnc4c(NC[C@@H]4CNCCO4)n3)cn2)C1 (some centres unmarked) [Compound 257]
25 | 6.00 to 7.00 | CC(C)(O)COc1ccc(-c2cc3nccnc3c(NC[C@@H]3CNCCO3)n2)cc1 [Compound 268]
26 | 6.00 to 7.00 | CC(Nc1nc(-c2ccc(N3CCOCC3)nc2)cc2nccnc12)C1CNCCO1 (centres unmarked) [Compound 277]
27 | 6.00 to 7.00 | CNS(=O)(=O)c1ccc(-c2cc3nccnc3c(NC[C@@H]3CNCCO3)n2)cc1 [Compound 284]
28 | 6.00 to 7.00 | COCCn1cc(-c2cc3nccnc3c(NCC3(F)CCCNC3)n2)cn1 (centres unmarked) [Compound 288]
29 | 6.00 to 7.00 | COc1ccc(-c2cc3nccnc3c(NCC3CNCCC3(F)F)n2)cn1 (centres unmarked) [Compound 299]
30 | 6.00 to 7.00 | O=C(C(F)F)N1CCC(F)(F)C(CNc2nc(-c3cnn(C4CCOCC4)c3)cc3nccnc23)C1 (centres unmarked) [Compound 325]
31 | 6.00 to 7.00 | CC(=O)N1CCO[C@H](CNc2nc(-c3ccc(N4CCOCC4)cc3)cc3nccnc23)C1 [Compound 326]
32 | 6.00 to 7.00 | O=C(CO)N1CCO[C@H](CNc2nc(-c3ccc(N4CCOCC4)cc3)cc3nccnc23)C1 [Compound 337]
33 | 6.00 to 7.00 | CNC(=O)N1CCO[C@H](CNc2nc(-c3ccc(N4CCOCC4)cc3)cc3nccnc23)C1 [Compound 339]
34 | 6.00 to 7.00 | CC(C)(F)C(=O)N1CCO[C@H](CNc2nc(-c3ccc(N4CCOCC4)cc3)cc3nccnc23)C1 [Compound 341]
35 | 6.00 to 7.00 | CC(F)(F)C(=O)N1CCO[C@H](CNc2nc(-c3ccc(N4CCOCC4)cc3)cc3nccnc23)C1 [Compound 342]
36 | 6.00 to 7.00 | O=C(CC(F)(F)F)N1CCO[C@H](CNc2nc(-c3ccc(N4CCOCC4)cc3)cc3nccnc23)C1 [Compound 343]
37 | 6.00 to 7.00 | NC(=O)N1CCO[C@H](CNc2nc(-c3ccc(N4CCOCC4)c(F)c3)cc3nccnc23)C1 [Compound 348]
38 | 6.00 to 7.00 | NC(=O)N1CCC(F)(F)C(CNc2nc(-c3cnn(C4CCOCC4)c3)cc3nccnc23)C1 (centres unmarked) [Compound 355]
39 | 6.00 to 7.00 | CNc1nc(-c2ccc(N3CCOCC3)cc2)cc2nccnc12 [Compound 357]
40 | 6.00 to 7.00 | CC(CO)Nc1nc(-c2ccc(N3CCOCC3)cc2)cc2nccnc12 (centres unmarked) [Compound 358]

The next lines start with the compound.

Row | SMILES | pIC50
41 | CN1CCN(c2ccc(-c3cc4nccnc4c(NCC4(F)CCCNC4)n3)cc2)CC1 (single isomer, unassigned) [Compound 380] | 7.00 to 9.00
42 | c1cnc2c(N3CCC4CNCC43)nc(-c3ccc(N4CCOCC4)cc3)cc2n1 (centres unmarked) [Compound 8] | 6.00 to 7.00
43 | COc1cc(-c2cc3nccnc3c(NCC3CCCNC3)n2)cc(OC)c1OC (centres unmarked) [Compound 11] | 6.00 to 7.00
44 | c1cc(-c2cc3nccnc3c(NCC3CCCNC3)n2)cc(N2CCOCC2)c1 (centres unmarked) [Compound 14] | 6.00 to 7.00
45 | c1cnc2c(NC3CCCNC3)nc(-c3ccc(N4CCOCC4)cc3)cc2n1 (centres unmarked) [Compound 27] | 6.00 to 7.00
46 | c1cnc2c(NCC3CCCNC3)nc(-c3ccoc3)cc2n1 (centres unmarked) [Compound 31] | 6.00 to 7.00
47 | OCCn1cc(-c2cc3nccnc3c(NC[C@H]3CCCNC3)n2)cn1 [Compound 34] | 7.00 to 9.00
48 | CS(=O)(=O)Nc1ccc(-c2cc3nccnc3c(NCC3CCCNC3)n2)cc1 (centres unmarked) [Compound 53] | 7.00 to 9.00
49 | CN(C)c1ccc(-c2cc3nccnc3c(NCC3CCCNC3)n2)cn1 (centres unmarked) [Compound 59] | 7.00 to 9.00
50 | c1cnc2c(NCC3CCCNC3)nc(-c3ccc(N4CCNCC4)cc3)cc2n1 (centres unmarked) [Compound 61] | 7.00 to 9.00
51 | CN(C)Cc1ccc(-c2cc3nccnc3c(NCC3CCCNC3)n2)cc1 (centres unmarked) [Compound 64] | 7.00 to 9.00
52 | O=C(c1ccc(-c2cc3nccnc3c(NCC3CCCNC3)n2)cc1)N1CCOCC1 (centres unmarked) [Compound 65] | 6.00 to 7.00
53 | CCNC(=O)c1ccc(-c2cc3nccnc3c(NCC3CCCNC3)n2)cc1 (centres unmarked) [Compound 66] | 6.00 to 7.00
54 | CCN(CC1CCCNC1)c1nc(-c2ccc(N3CCOCC3)cc2)cc2nccnc12 (centres unmarked) [Compound 154] | 6.00 to 7.00
55 | COc1ccc(-c2cc3nccnc3c(NCCCN)n2)cc1OC [Compound 191] | 6.00 to 7.00
56 | FC1(F)CNCC(CNc2nc(-c3ccc(N4CCOCC4)c(Cl)c3)cc3nccnc23)C1 (centres unmarked) [Compound 203] | 6.00 to 7.00
57 | CNc1ccc(-c2cc3nccnc3c(NCC3CNCC(F)(F)C3)n2)cc1 (centres unmarked) [Compound 204] | 6.00 to 7.00
58 | CCn1cc(-c2cc3nccnc3c(NC[C@@H]3CNCCO3)n2)cn1 [Compound 209] | 6.00 to 7.00
59 | Cn1cc(-c2cc3nccnc3c(NC[C@@H]3CNCCO3)n2)cn1 [Compound 210] | 6.00 to 7.00
60 | CN(C)C(=O)Cc1ccc(-c2cc3nccnc3c(NC[C@@H]3CNCCO3)n2)cc1 [Compound 224] | 6.00 to 7.00

Row | SMILES | pIC50
61 | CN(C)S(=O)(=O)c1ccc(-c2cc3nccnc3c(NCC3CNCCO3)n2)cc1 (centres unmarked) [Compound 227] | 6.00 to 7.00
62 | O=C1COCCN1c1ccc(-c2cc3nccnc3c(NC[C@@H]3CNCCO3)n2)cc1 [Compound 242] | 6.00 to 7.00
63 | Fc1ccc(-c2cc3nccnc3c(NC[C@@H]3CNCCO3)n2)cc1 [Compound 245] | 6.00 to 7.00
64 | C[C@@H]1CN(c2ccc(-c3cc4nccnc4c(NC[C@@H]4CNCCO4)n3)cn2)C[C@H](C)O1 [Compound 246] | 6.00 to 7.00
65 | c1cn(-c2ccc(-c3cc4nccnc4c(NC[C@@H]4CNCCO4)n3)cc2)cn1 [Compound 248] | 6.00 to 7.00
66 | CN1CC2CN(c3ccc(-c4cc5nccnc5c(NC[C@@H]5CNCCO5)n4)cn3)CC2C1 (some centres unmarked) [Compound 256] | 6.00 to 7.00
67 | c1cnc2c(NC[C@@H]3CNCCO3)nc(-c3ccc(OCC4CCOCC4)nc3)cc2n1 [Compound 258] | 6.00 to 7.00
68 | CN1CCC(n2cc(-c3cc4nccnc4c(NC[C@@H]4CNCCO4)n3)cn2)CC1 [Compound 262] | 6.00 to 7.00
69 | c1cnc2c(NC[C@@H]3CNCCO3)nc(-c3ccc(OCCN4CCOCC4)nc3)cc2n1 [Compound 263] | 6.00 to 7.00
70 | c1cnc2c(NC[C@@H]3CNCCO3)nc(-c3ccc(OC4CCOCC4)nc3)cc2n1 [Compound 271] | 6.00 to 7.00
71 | O=S(=O)(c1ccc(-c2cc3nccnc3c(NC[C@@H]3CNCCO3)n2)cc1)N1CCOCC1 [Compound 283] | 6.00 to 7.00
72 | CCC(=O)N1CCO[C@H](CNc2nc(-c3ccc(N4CCOCC4)cc3)cc3nccnc23)C1 [Compound 327] | 6.00 to 7.00
73 | CC(C)C(=O)N1CCO[C@H](CNc2nc(-c3ccc(N4CCOCC4)cc3)cc3nccnc23)C1 [Compound 328] | 6.00 to 7.00
74 | O=S(=O)(C1CC1)N1CCO[C@H](CNc2nc(-c3ccc(N4CCOCC4)cc3)cc3nccnc23)C1 [Compound 344] | 6.00 to 7.00
75 | NC(=O)N1CCC(CNc2nc(-c3ccc(N4CCOCC4)cc3)cc3nccnc23)CC1 [Compound 350] | 6.00 to 7.00
76 | NC(=O)N1CCCCC1CNc1nc(-c2ccc(N3CCOCC3)cc2)cc2nccnc12 (centres unmarked) [Compound 354] | 6.00 to 7.00
77 | NC(=O)N1CCC(F)(F)C(CNc2nc(-c3ccc(N4CCOCC4)cc3)cc3nccnc23)C1 (centres unmarked) [Compound 356] | 6.00 to 7.00
78 | O=C1CN(c2nc(-c3ccc(N4CCOCC4)cc3)cc3nccnc23)CCN1 [Compound 360] | 6.00 to 7.00
79 | O=C(O)c1ccccc1Nc1nc(-c2ccc(N3CCOCC3)cc2)cc2nccnc12 [Compound 361] | 6.00 to 7.00
80 | NC(=O)[C@H]1CC[C@@H](Nc2nc(-c3ccc(N4CCOCC4)cc3)cc3nccnc23)CC1 [Compound 363] | 6.00 to 7.00
